From patent publication US20230210857A1, “RESPIRATORY STIMULANT PARENTERAL FORMULATIONS” (Enalare Therapeutics Inc., priority 2021, published 2023)

Columns and labels:
[1] = pH solubility study (100 mM citric acid, shaken overnight at room temperature, HPLC assay); assay type: physicochemical
Experimental: A pH solubility study was performed to assess the feasibility of formulating the active agent (N-(4,6-Bis-n-propylamino-[1,3,5]triazin-2-yl)-O,N-dimethyl-hydroxylamine) as a simple buffered solution at a reasonable pH for an IV formulation.
Methodology: The active agent (N-(4,6-Bis-n-propyl amino-[1,3,5]triazin-2-yl)-O,N-dimethyl-hydroxylamine) and H2SO4 solution of concentration ˜107 mg/mL in 100 mM citric acid at pH 2.5 was prepared. About 150 μL aliquots of this solution were transferred into 6 separate glass HPLC vials. All the samples, including the solution at pH 2.5, were shaken overnight at room temperature using a gyratory shaker. After shaking, the samples were evaluated visually for the presence of precipitate and were then spin filtered through 0.45 μm syringe tip filters (4 mm diameter) at 3000 rpm for 20 min. The final pH values of the filtrates were measured. The filtrates were then diluted appropriately and analyzed for the active agent (N-(4,6-Bis-n-propylamino-[1,3,5]triazin-2-yl)-O,N-dimethyl-hydroxylamine). H2SO4 concentration using the HPLC assay.
Results: The pH values of the samples prior to and after shaking overnight, appearance as well as concentrations of samples are shown in Table 12.

[2] = Three-phase pharmacokinetics (PK) study in minipigs, single IV and IM doses; conditions: male, Gottingen, minipig, in vivo; for AUC(0-inf): AUCINF; for AUC(0-t): AUClast; for half-life: T1/2
Experimental: The study consisted of conducting a bioequivalence (BE) study in minipigs. Two formulations of a Compound having Formula (I) (N-(4,6-Bis-n-propylamino-[1,3,5]triazin-2-yl)-O,N-dimethyl-hydroxylamine) were tested in the study as follows:
For IV administration, minipigs (n=3) received a single IV bolus (1-2 minutes) administration of the Compound having Formula (I) (N-(4,6-Bis-n-propylamino-[1,3,5]triazin-2-yl)-O,N-dimethyl-hydroxylamine) via VAP (vascular access port) at the jugular vein. For IM administration, minipigs (n=3) received a single IM administration of Compound having Formula (I) (N-(4,6-Bis-n-propylamino-[1,3,5]triazin-2-yl)-O,N-dimethyl-hydroxylamine) via the lateral neck muscle (behind the ear). The animals were dosed before noon on dosing days. The routes allowed for the determination of pharmacokinetics of Compound having Formula (I) (N-(4,6-Bis-n-propylamino-[1,3,5]triazin-2-yl)-O,N-dimethyl-hydroxylamine) from IV and IM administration.
A PK study was conducted in male Gottingen minipigs (n=3), which were administered in a single IV and subsequent IM doses using the dosing scheme outlined in Table 25. There was a minimum of 3 day washout period between dose events.
The mean dose for IV dose Group 1 was 4.79+/−0.012 mg/kg. The mean dose for IM dose Group 2 was 4.82+/−0.036 mg/kg. The mean dose for IM dose Group 3 was 4.79+/−0.033 mg/kg. All through groups nominal doses were 4.8 mg/kg. These does were based on the nominal concentrations of the Compound having Formula (I) (N-(4,6-Bis-n-propylamino-[1,3,5]triazin-2-yl)-O,N-dimethyl-hydroxylamine) in the dose formulations (purity, water, and salt content corrected).
For IV administration, minipigs (n=3) received a single IV bolus (1-2 minutes) administration of Compound having Formula (I) (N-(4,6-Bis-n-propylamino-[1,3,5]triazin-2-yl)-O,N-dimethyl-hydroxylamine) via a Vascular access port (VAP) in the jugular vein. For IM administration, minipigs (n=3) received a single IM administration of each IM formulation via the lateral neck muscle (behind the ear). For each dose event, blood samples were collected at 8 time points: 0.083, 0.167, 0.25, 0.5, 1, 2, 4 and 24 hours post dose. General observations were conducted twice-daily for any treatment-related effects/toxicity and/or tolerability. Table 26 includes the Plasma Concentration Descriptive Statistics of Compound having Formula (I) (N-(4,6-Bis-n-propylamino-[1,3,5]triazin-2-yl)-O,N-dimethyl-hydroxylamine). Table 27 illustrates the plasma concentration pharmacokinetic parameters of Compound having Formula (I) (N-(4,6-Bis-n-propylamino-[1,3,5]triazin-2-yl)-O,N-dimethyl-hydroxylamine).
The plasma concentration descriptive statistics of the compound having Formula (I) (N-(4,6-Bis-n-propyl amino-[1,3,5]triazin-2-yl)-O,N-dimethyl-hydroxyl amine) are presented in Table 28.
The T1/2 values were 3.0 hours for IV Group 1 and 3.2 hours and 2.7 hours for IM Groups 2 and 3, respectively.
For each dose level, Cmax was higher for IV dosing than for IM dosing whereas AUClast was higher for IM dosing than for IV dosing.
The IV and IM bioavailability of a Compound having Formula (I) (N-(4,6-Bis-n-propylamino-[1,3,5]triazin-2-yl)-O,N-dimethyl-hydroxylamine) is presented in Table 30.
The IV formulation single injection yielded higher Cmax and shorter time to Cmax(Tmax). […] From the present pharmacokinetic study, it is believed that IM Formulation 1 is a simple formulation with high solubility and shorter Tmax, while IM Formulation 2 has higher absorption in both rats and minipig.

[3] = Drug substance stability (API in closed Type I glass vials); assay type: physicochemical
Experimental: Methodology: Approximately 100 mg of the API (Lot 009MSB058) were stored at each of 40° C. and 60° C. in closed Type I glass vials. Samples were analyzed for appearance and percent purity at T0 and after 1 week, 2 weeks and 4 weeks of storage.
Visually, there were no signs of degradation (i.e. discoloration etc.).

[4] = iv, 4.8 mg/kg, Mean plasma concentration

Active Agent · H2SO4 Concentration ([1]; pH 2.42): 104.1 mg/mL | Active Agent · H2SO4 Concentration ([1]; pH 3): 99.8 mg/mL | Active Agent · H2SO4 Concentration ([1]; pH 3.51): 101.6 mg/mL | Appearance after Shaking ([1]; target pH 2.5): Clear solution | Appearance after Shaking ([1]; target pH 3.0): Clear solution | Appearance after Shaking ([1]; target pH 3.5): Clear solution | Appearance after Shaking ([1]; target pH 4.0): Precipitate | Appearance after Shaking ([1]; target pH 4.5): Precipitate | Appearance after Shaking ([1]; target pH 5.0): Precipitate | Appearance after Shaking ([1]; target pH 5.5): Precipitate | bioavailability [2]: 117.2% | bioavailability ([2]; Bioavailability): 113% | AUClast ([2]; im, 4.8 mg/kg): 2711 ng·h/mL | T1/2 ([2]; im, 4.8 mg/kg): 2.7 h | AUC(0-inf) ([2]; im, 4.8 mg/kg): 2720 ng·h/mL | AUC(0-t) ([2]; im, 4.8 mg/kg): 2620 ng·h/mL | Cmax ([2]; im, 4.8 mg/kg): 466 ng/mL | half-life ([2]; im, 4.8 mg/kg): 3.2 h | Tmax ([2]; im, 4.8 mg/kg): 0.5 h | AUC(0-inf) ([2]; iv, 4.8 mg/kg): 2320 ng·h/mL | AUC(0-t) ([2]; iv, 4.8 mg/kg): 2310 ng·h/mL | bioavailability ([2]; iv, 4.8 mg/kg, Bioavailability): 100% | Cmax ([2]; iv, 4.8 mg/kg): 2820 ng/mL | concentration at 0.083 hr [2, 4]: 2820 ng/mL | concentration at 0.167 hr [2, 4]: 2010 ng/mL | concentration at 0.25 hr [2, 4]: 1500 ng/mL | concentration at 0.5 hr [2, 4]: 1020 ng/mL | concentration at 1 hr [2, 4]: 519 ng/mL | concentration at 2 hr [2, 4]: 186 ng/mL | concentration at 4 hr [2, 4]: 40 ng/mL | concentration at 24 hr [2, 4]: 0.8 ng/mL | half-life ([2]; iv, 4.8 mg/kg): 3 h | Tmax ([2]; iv, 4.8 mg/kg): 0.083 h | drug substance stability (in words) ([3]; 4 weeks even at 60° C.): quite stable | Appearance ([3]; 40° C., T = 1 week): White | Purity ([3]; 40° C., T = 1 week): 99.92% | Related Substances (Total) ([3]; 40° C., T = 1 week): Total 0.08 | Appearance ([3]; 40° C., T = 2 week): White | Purity ([3]; 40° C., T = 2 week): 99.90% | Related Substances (Total) ([3]; 40° C., T = 2 week): Total 0.10 | Appearance ([3]; 40° C., T = 4 week): White | Purity ([3]; 40° C., T = 4 week): 100.00% | Appearance ([3]; 60° C., T = 1 week): powder | Purity ([3]; 60° C., T = 1 week): 99.76% | Related Substances (Total) ([3]; 60° C., T = 1 week): Total 0.24 | Appearance ([3]; 60° C., T = 2 week): powder | Purity ([3]; 60° C., T = 2 week): 100.00% | Appearance ([3]; 60° C., T = 4 week): powder | Purity ([3]; 60° C., T = 4 week): 100.00% | Appearance ([3]; T = 0): White | Purity ([3]; T = 0): 100.00%
Compound: CCCNc1nc(NCCC)nc(N(C)OC)n1 [active agent, N-(4,6-Bis-n-propylamino-[1,3,5]triazin-2-yl)-O,N-dimethyl-hydroxylamine]
